One experiment has as its target AMPA receptors. As to conditions: cited from earlier work.
Another experiment deals with KARs. As to conditions: SYM2206 at 100 μM; cited from earlier work.
The subject of experiment [1] is EPSCs in LA neurons (thalamic input). Briefly: Whole-cell patch-clamp recording of EPSCs in lateral amygdala neurons in slices. The format is cell-based, mice. The procedure:
Transverse slices ([…]) of the amygdala were transferred to a room temperature submerged recovery chamber with oxygenated (95% O2 and 5% CO2) ACSF solution as described above. After a one hour recovery, slices were placed in a recording chamber on the stage of an Axioskop 2FS microscope (Zeiss) equipped with infrared DIC optics for visualized whole-cell patch clamp recordings. Excitatory postsynaptic currents were recorded from cells in the lateral amygdala with an Axon 200B amplifier (Axon Instruments, Calif., USA). Electrical stimulations (200 μsec duration) were delivered by a bipolar tungsten stimulating electrode placed in the internal capsule (thalamic inputs) (Tsvetkov et al., 2004). EPSCs were induced by repetitive stimulations at 0.02-0.05 Hz and neurons were voltage clamped at −70 mV. In all experiments, the stimulus intensity was adjusted to produce synaptic responses with an amplitude of 70-100 pA. […] Access resistance was 15-30 M ? and monitored throughout the experiment. […]

A further experiment has as its system GluR5. To be noted: treated animals; cited from earlier work.

For the compound `CCCNC(=O)N1N=C(c2ccc(N)cc2)c2cc3c(cc2C1C)OCO3` (racemic) [SYM2206, (±)-4-(4-aminophenyl)-1,2-dihydro-1-methyl-2-propylcarbamoyl-6,7-methylenedioxyphthalazine], at AMPA receptors (AMPA receptors, read-out: half-maximal inhibitory concentration), the IC50 was 1000 to 2000 nM. In addition, the “inhibition of AMPA receptors” value in the experiment with AMPA receptors (SYM2206 at 100 μM) is given as “maximal inhibition”. Also, the “inhibition of KARs” value with KARs is listed as 20-30%. Besides, the “effect on EPSCs” value in experiment [1] (bath application of AP5 (50 μM) plus SYM2206 (100 μM), n=17, LA neurons) was “reduced, but did not completely block”.
For the compound `N#Cc1cc2[nH]c(=O)c(=O)[nH]c2cc1[N+](=O)[O-]` [CNQX], the “effect on residual (SYM2206-insensitive) current” value in experiment [1] (CNQX 20 μM, after AP5 plus SYM2206, n=5) was “completely blocked”.
Consider `O=C(O)c1ccc(C[C@H]2CC[C@H]3CN[C@H](C(=O)O)C[C@H]3C2)cc1` [LY382884], for which the “behavioral responses to formalin and Complete Freund's adjuvant (CFA)” value with GluR5 was “reduced”.
